Results published in PubChem BioAssay (NCI).
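Results reflect a 48-hour exposure of cells in 96-well plates to compound at five concentrations. GI50 marks 50% less growth. TGI marks complete inhibition of growth.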 Peptide text beside a SMILES is read from it. * marks the point of attachment. X26 = Clc1c(Cl)c(Cl)c(O*)c(Cl)c1Cl; Boc = CC(C)(C)OC(=O)*; OBn = c1ccc(CO*)cc1; Bn = c1ccc(C*)cc1

Assays:
Assay in all cases: NCI tumour cell line growth inhibition, 48 h
UACC-62 melanoma = test system: UACC-62 melanoma
SF-295 CNS = test system: SF-295 CNS
MALME-3M melanoma = test system: MALME-3M melanoma
MCF7 breast = test system: MCF7 breast
KM12 colon = test system: KM12 colon
SF-268 CNS = test system: SF-268 CNS
HCT-15 colon = test system: HCT-15 colon
IGROV1 ovarian = test system: IGROV1 ovarian

N#Cc1nc(C2CCC(=O)O2)oc1N (centres undefined)
TGI (UACC-62 melanoma): > 100 µM
TGI (SF-295 CNS): > 100 µM
TGI (MALME-3M melanoma): > 100 µM
TGI (MCF7 breast): > 100 µM
TGI (KM12 colon): > 100 µM
TGI (SF-268 CNS): > 100 µM
TGI (HCT-15 colon): > 100 µM
TGI (IGROV1 ovarian): > 100 µM

CC(O)CNC1=CC(=O)C(=O)c2ccccc21 (centres undefined)
TGI (UACC-62 melanoma): 26.8 µM
TGI (SF-295 CNS): 27 µM
TGI (MALME-3M melanoma): 17.7 µM
TGI (MCF7 breast): 48.7 µM
TGI (KM12 colon): 56.2 µM
TGI (SF-268 CNS): 33.9 µM
TGI (HCT-15 colon): 33.6 µM
TGI (IGROV1 ovarian): 33.8 µM

O=c1c(-c2ccccc2)c(SCCN2CCCCCC2)n(-c2ccccc2)c(=S)n1-c1ccccc1
TGI (UACC-62 melanoma): > 100 µM
TGI (SF-295 CNS): > 100 µM
TGI (MALME-3M melanoma): 49.3 µM
TGI (MCF7 breast): > 100 µM
TGI (KM12 colon): > 100 µM
TGI (HCT-15 colon): > 100 µM
TGI (IGROV1 ovarian): > 100 µM

C=C(C)[C@H]1CC(=O)/C(C)=C\CC/C(C)=C/CC[C@@]2(C)O[C@@H]2C1
TGI (UACC-62 melanoma): 26.2 µM
TGI (SF-295 CNS): 89.8 µM
TGI (MALME-3M melanoma): 88.7 µM
TGI (KM12 colon): 44.3 µM
TGI (SF-268 CNS): 61.2 µM
TGI (HCT-15 colon): > 100 µM
TGI (IGROV1 ovarian): > 100 µM

CC(C)CC(NC(=O)C(CCC(=O)OCc1ccccc1)NC(=O)OC(C)(C)C)C(=O)NC(COCc1ccccc1)C(=O)NC(Cc1ccccc1)C(=O)Oc1c(Cl)c(Cl)c(Cl)c(Cl)c1Cl (centres undefined) (Boc-E(OBn)LS(Bn)F-X26; configuration not given here)
TGI (UACC-62 melanoma): 44.4 µM
TGI (SF-295 CNS): 68.1 µM
TGI (MALME-3M melanoma): 91.5 µM
TGI (MCF7 breast): 66.3 µM
TGI (KM12 colon): 47.1 µM
TGI (SF-268 CNS): > 100 µM
TGI (HCT-15 colon): 51 µM
TGI (IGROV1 ovarian): 56.3 µM

COc1ccc(C2SC(N)=Nc3c2c(C)nn3C(=O)c2ccc(Cl)cc2)cc1OC (centres undefined)
TGI (UACC-62 melanoma): > 10 µM
TGI (SF-295 CNS): > 10 µM
TGI (MALME-3M melanoma): > 10 µM
TGI (MCF7 breast): > 10 µM
TGI (KM12 colon): > 10 µM
TGI (SF-268 CNS): > 10 µM
TGI (HCT-15 colon): > 10 µM
TGI (IGROV1 ovarian): > 10 µM

C#CCOCC12C=CC(O1)C1COC(=O)C12 (centres undefined)
TGI (UACC-62 melanoma): > 100 µM
TGI (SF-295 CNS): > 100 µM
TGI (MALME-3M melanoma): > 100 µM
TGI (KM12 colon): > 100 µM
TGI (SF-268 CNS): > 100 µM
TGI (HCT-15 colon): > 100 µM
TGI (IGROV1 ovarian): > 100 µM

Oc1c(OCc2nnc(CCCCCCCCc3nnc(COc4ccc5ccccc5c4O)o3)o2)ccc2ccccc12
TGI (UACC-62 melanoma): > 100 µM
TGI (SF-295 CNS): > 100 µM
TGI (MALME-3M melanoma): > 100 µM
TGI (MCF7 breast): > 100 µM
TGI (KM12 colon): > 100 µM
TGI (SF-268 CNS): > 100 µM
TGI (HCT-15 colon): > 100 µM

Cn1c2c(c3ccccc31)CCN1C(=O)C34CCCC3CC21S4 (centres undefined)
TGI (UACC-62 melanoma): > 100 µM
TGI (SF-295 CNS): > 100 µM
TGI (MALME-3M melanoma): > 100 µM
TGI (MCF7 breast): > 100 µM
TGI (KM12 colon): > 100 µM
TGI (SF-268 CNS): > 100 µM
TGI (HCT-15 colon): > 100 µM
TGI (IGROV1 ovarian): > 100 µM

CCN1CCN(Cc2ccc(NC(=O)Nc3ccc(-n4ccc5c(NC(=O)c6ccccc6)nccc54)cc3)cc2C(F)(F)F)CC1
GI50 (MCF7 breast): 756 nM
TGI (MCF7 breast): 2.08 µM
GI50 (KM12 colon): 27.1 nM
TGI (KM12 colon): 1.45 µM
GI50 (HCT-15 colon): 227 nM
TGI (HCT-15 colon): 1.81 µM
GI50 (IGROV1 ovarian): 1420 nM
TGI (IGROV1 ovarian): 4.39 µM

Cc1ccc2c(c1C)CC1(Cc3c(C)ccc(C)c3C1=O)C2=O (centres undefined)
TGI (UACC-62 melanoma): > 100 µM
TGI (SF-295 CNS): > 100 µM
TGI (MALME-3M melanoma): > 100 µM
TGI (MCF7 breast): > 100 µM
TGI (KM12 colon): > 100 µM
TGI (SF-268 CNS): > 100 µM
TGI (HCT-15 colon): > 100 µM
TGI (IGROV1 ovarian): > 100 µM

Cc1nc(SCC(N)=O)c2sc(=S)n(-c3ccccc3)c2n1
TGI (UACC-62 melanoma): > 10 µM
TGI (SF-295 CNS): > 10 µM
TGI (MALME-3M melanoma): > 10 µM
TGI (MCF7 breast): > 10 µM
TGI (KM12 colon): > 10 µM
TGI (SF-268 CNS): > 10 µM
TGI (HCT-15 colon): > 10 µM
TGI (IGROV1 ovarian): > 10 µM

O=P(OCc1ccccc1)(OCc1ccccc1)C(O)/C=C/c1ccccc1 (centres undefined)
TGI (UACC-62 melanoma): 31.4 µM
TGI (SF-295 CNS): 49.4 µM
TGI (MALME-3M melanoma): 38.2 µM
TGI (MCF7 breast): > 100 µM
TGI (KM12 colon): 43.1 µM
TGI (SF-268 CNS): 42.8 µM
TGI (HCT-15 colon): > 100 µM
TGI (IGROV1 ovarian): 49.2 µM

CN(C)CCCNc1cc(O)c2c(c1O)C(=O)c1ccccc1C2=O
TGI (UACC-62 melanoma): 35.3 µM
TGI (SF-295 CNS): 25.9 µM
TGI (MALME-3M melanoma): 50.2 µM
TGI (MCF7 breast): 35.9 µM
TGI (KM12 colon): 21.7 µM
TGI (SF-268 CNS): 36.4 µM
TGI (HCT-15 colon): 21 µM
TGI (IGROV1 ovarian): 24.6 µM

Cc1nnc2n1-c1ccccc1N(Cc1ccccc1)CC2
TGI (UACC-62 melanoma): > 100 µM
TGI (SF-295 CNS): > 100 µM
TGI (MALME-3M melanoma): > 100 µM
TGI (MCF7 breast): > 100 µM
TGI (KM12 colon): > 100 µM
TGI (SF-268 CNS): > 100 µM
TGI (HCT-15 colon): > 100 µM
TGI (IGROV1 ovarian): > 100 µM

O=C1NC(=S)NC(=O)C1C(c1ccc(Cl)cc1)C1C(=O)NC(=S)NC1=O
TGI (UACC-62 melanoma): > 100 µM
TGI (SF-295 CNS): > 100 µM
TGI (MALME-3M melanoma): > 100 µM
TGI (MCF7 breast): > 100 µM
TGI (KM12 colon): > 100 µM
TGI (HCT-15 colon): > 100 µM
TGI (IGROV1 ovarian): > 100 µM

CCN(CC)c1ccc(NC(=S)NN(C)C)cc1
TGI (UACC-62 melanoma): > 10 µM
TGI (SF-295 CNS): > 10 µM
TGI (MALME-3M melanoma): > 10 µM
TGI (MCF7 breast): > 10 µM
TGI (KM12 colon): > 10 µM
TGI (SF-268 CNS): > 10 µM
TGI (HCT-15 colon): > 10 µM
TGI (IGROV1 ovarian): > 10 µM

Cc1ccc(C(=O)Cc2nc3c([nH]c2=O)c(C)nn3-c2ccccc2)c(C)c1
TGI (UACC-62 melanoma): > 10 µM
TGI (SF-295 CNS): > 10 µM
TGI (MALME-3M melanoma): > 10 µM
TGI (MCF7 breast): > 10 µM
TGI (KM12 colon): > 10 µM
TGI (SF-268 CNS): > 10 µM
TGI (HCT-15 colon): > 10 µM
TGI (IGROV1 ovarian): > 10 µM

C[n+]1c(-c2ccc(NC(=O)c3ccc(C(=O)Nc4ccc(-c5cn6ccccc6[n+]5C)cc4)cc3)cc2)cn2ccccc21
TGI (UACC-62 melanoma): > 100 µM
TGI (SF-295 CNS): > 100 µM
TGI (MALME-3M melanoma): > 100 µM
TGI (MCF7 breast): > 100 µM
TGI (KM12 colon): > 100 µM
TGI (SF-268 CNS): > 100 µM
TGI (HCT-15 colon): > 100 µM
TGI (IGROV1 ovarian): > 100 µM

COc1cc2c3c(cc(Cl)nc3c1OC)C(=O)C(=O)N2
TGI (UACC-62 melanoma): 18.1 µM
TGI (SF-295 CNS): 32.9 µM
TGI (MALME-3M melanoma): 3.82 µM
TGI (MCF7 breast): 4.58 µM
TGI (KM12 colon): 30.3 µM
TGI (SF-268 CNS): 31.6 µM
TGI (HCT-15 colon): 40.8 µM
TGI (IGROV1 ovarian): 25.1 µM

O=[N+]([O-])/C(Cl)=C(/C(Cl)=C(Cl)Cl)N1CCCCC1
TGI (UACC-62 melanoma): 17.1 µM
TGI (SF-295 CNS): 54.3 µM
TGI (MALME-3M melanoma): 11.6 µM
TGI (MCF7 breast): 17.4 µM
TGI (KM12 colon): 27.6 µM
TGI (SF-268 CNS): 75.1 µM
TGI (HCT-15 colon): 19.1 µM
TGI (IGROV1 ovarian): 23.4 µM

CCCCCCCCCCCCNC(=O)CCC(NC(=O)c1ccc(N(C)Cc2cnc3nc(N)nc(N)c3n2)cc1)C(=O)NCCCCCCCCCCCC (centres undefined)
TGI (UACC-62 melanoma): > 100 µM
TGI (SF-295 CNS): > 100 µM
TGI (MALME-3M melanoma): > 100 µM
TGI (MCF7 breast): > 100 µM
TGI (KM12 colon): > 100 µM
TGI (SF-268 CNS): > 100 µM
TGI (HCT-15 colon): > 100 µM
TGI (IGROV1 ovarian): > 100 µM

Cc1cn(CCCCCOC(=O)NC(CCCNC(N)=O)C(=O)O)c(=O)[nH]c1=O (centres undefined)
TGI (UACC-62 melanoma): > 100 µM
TGI (SF-295 CNS): > 100 µM
TGI (MCF7 breast): > 100 µM
TGI (KM12 colon): > 100 µM
TGI (SF-268 CNS): > 100 µM
TGI (HCT-15 colon): > 100 µM
TGI (IGROV1 ovarian): > 100 µM

Cc1ccc(S(=O)(=O)c2c(O)c3ccc(O)c(C)c3oc2=O)cc1
TGI (UACC-62 melanoma): > 100 µM
TGI (SF-295 CNS): > 100 µM
TGI (MALME-3M melanoma): > 100 µM
TGI (MCF7 breast): > 100 µM
TGI (KM12 colon): > 100 µM
TGI (SF-268 CNS): > 100 µM
TGI (HCT-15 colon): > 100 µM
TGI (IGROV1 ovarian): > 100 µM

S=c1[nH]nc(Cn2c3ccc(Br)cc3c3nc4ccccc4nc32)n1C1CCCCC1
TGI (UACC-62 melanoma): 41.1 µM
TGI (SF-295 CNS): 49.5 µM
TGI (MALME-3M melanoma): 72.7 µM
TGI (MCF7 breast): > 100 µM
TGI (KM12 colon): > 100 µM
TGI (SF-268 CNS): > 100 µM
TGI (HCT-15 colon): > 100 µM
TGI (IGROV1 ovarian): > 100 µM
